Source: patent US10098849B2, “Anti-radical agents” (BASF SE, priority 2004, dated 2018)
Like-named read-outs stand apart in the source and are kept apart here.

What was measured:
[1] = system: Primary human dermal fibroblasts (HDF-N2)
Procedure: Cell cultures: Primary human dermal fibroblasts (HDF-N2) are maintained in Dulbecco's culture media (DMEM; 1 g/l glucose), supplemented with 10% of fetal calf serum (FCS), 100 μg/ml of streptomycin sulphate, 100 μml of penicillin and 2 mM of L-glutamine, all of them from Biowhitaker, USA. Confluent cells are detached by incubation for 3 minutes in 0.055 trypsin/0.53 mM EDTA at 37° C. and plated at the established cell density (normally, 15×10^4 cells/cm^2).
Culture media of negative controls are containing 10 mMol NaCl or 0.05% DMSO or 0.05% ethanol, respectively. Positive control is a culture medium containing 0.02% of Sodium Lauryl Sulfate (SDS).
For comparative purposes, a further culture medium is used containing the compound of the formula

[2] = system: squalene peroxidation (squalenehydroperoxide) in skin lipids; assay: Efficacy against photooxidative stress in the skin induced by UVA irradiation (squalenehydroperoxide, HPLC); format: in vivo, human
Procedure: Anti-oxidant activity in vivo is measured via the capacity of a test compound to reduce radical induced lipid-peroxidation. • Persons tested: 10 individuals (4 female, 6 male); age range: 18 to 32 years • Body region tested: inner forearm • Application phase: once a day • Test period 7 days • Evaluation method: Determination of squalene • Determination of squalenehydroperoxide • Time of Evaluation: after UVA radiation • Evaluation: Descriptive statistics: average, median, minimum, maximum, variance, standard error, standard deviation; Multiple range test. Test Method
On the inner forearm of each subject symmetrically opposed areas are defined. The different formulations are applied once a day at a dose of about 2 mg of test solution/cm^2 for one week (application with a syringe for fine dosage: Omnifix®-F 1 ml; manufacturer: Braun Melsungen AG, Germany).
Two areas remain untreated.
The unique application of a solution of tocopherol in ethanol (0.2%) before irradiation serves as control.
Use of other cosmetic products is restricted on the test areas throughout the whole study. The areas (exception: one of the two untreated areas was not irradiated and can be attributed to environmental UVA radiation during the test) of the […] were then irradiated with UVA light (10 joule/cm^2). The lipids present on the test areas are harvested via a solvent extraction (4 ml ethanol for 2 minutes). The samples are first filtered through hydrophobic polypropylene filters to decant squames and other insoluble material, then dried under nitrogen at room temperature and taken up in 1 ml ethanol. Squalene (SQ) and squalenehydroperoxide (SQOOH) are then analysed by High Performance Liquid Chromatography (HPLC).
The fluorometer is used as a photon detector with the excitation source turned off.
This assay measures the hydroperoxy groups themselves and not indirect indices of lipid peroxidation such as conjugated dienes or breakdown products of lipid hydroperoxides. Chemiluminescence also detects ubiquinols. To confirm that any chemiluminescence observed in this assay was due to a hydroperoxide, not a hydroquinone, some samples were reduced with triphenyl phosphine and rerun.
Measuring data are centrally computerised after validity check and quality assurance. Evaluation is done using the software Statgraphics for Windows, Version 5.0—Manugistics, USA. Data are analysed by multiple range test (LSD: Least Significant Differences). The 0.05 level is selected as the point of minimal acceptance statistical significance.

[3] = 1% b.w. solution in ethanol, about 2 mg/cm^2 once a day for 7 days, inner forearm, UVA 10 joule/cm^2, 10 individuals
[4] = 5% stock solution in DMSO or ethanol diluted 1:500 in culture medium with 10% FCS, 48 h HDF cultures, more absorption = more viable cells

Compound: CC(C)Cc1ccc(Oc2ccccc2)cc1O [comparison, reference compound]
- Absorbance (OD450) after 24 h treatment ([1]; human, 24 h, 0.01 %): 0.25

Compound: CC1(C)CC(O)CC(C)(C)N1O [AO8]
- average inhibition in % of peroxidation (SQOOH relative to untreated area) [2, 3]: 21%
- Absorbance (OD450) after 24 h treatment [1, 4]: 1.65

Compound: pentaerythritol-tetrakis(3-[3′,5′-di-tert.butyl-4′-hydroxyphenyl]-propionate) [AO7]
- average inhibition in % of peroxidation (SQOOH relative to untreated area) ([2]; 0.1% b.w. solution in ethanol, about 2 mg/cm^2 once a day for 7 days, inner forearm, UVA 10 joule/cm^2, 10 individuals): 21.5%
- Absorbance (OD450) after 24 h treatment [1, 4]: 2.0

Compound: CC(c1cc(C(C)(C)C)cc(C(C)(C)C)c1O)c1cc(C(C)(C)C)cc(C(C)(C)C)c1O [AO4]
- average inhibition in % of peroxidation (SQOOH relative to untreated area) [2, 3]: 28%
- Absorbance (OD450) after 24 h treatment ([1]; human, 24 h, 0.01 %): 1.0

Compound: CCCCCCCCCCCCOS(=O)(=O)[O-].[Na+] [SDS, Sodium Lauryl Sulfate, reference compound]
- Absorbance (OD450) after 24 h treatment ([1]; positive control, culture medium containing 0.02% Sodium Lauryl Sulfate, 48 h HDF cultures): 0.25

Compound: CC(C)(C)c1cc(CCC(=O)Nc2ccc(S(=O)(=O)[O-])cc2)cc(C(C)(C)C)c1O.[Na+] [AO6]
- average inhibition in % of peroxidation (SQOOH relative to untreated area) [2, 3]: 28%
- Absorbance (OD450) after 24 h treatment ([1]; human, 24 h, 0.01 %): 1.9

Compound: Cc1c(C)c2c(c(C)c1O)CC[C@@](C)(CCC[C@H](C)CCC[C@H](C)CCCC(C)C)O2 [Control, tocopherol, reference compound]
- average inhibition in % of peroxidation (SQOOH relative to untreated area) ([2]; unique application of tocopherol in ethanol (0.2%) before irradiation, UVA 10 joule/cm^2): 22.5%
